In patent publication US4916147A, “3-[(4-Aroyl) phenoxy (or phenylthio)]-cyclopentanecarboxylic acid analogues and treatment of cerebral edema therewith” (Ono Pharmaceutical Co., Ltd., priority 1985, dated 1990):

What was measured:
mice = experiment: Acute toxicity test in mice by intravenous administration; format: in vivo; conditions: dead/treated
Procedure: For example, in the acute toxicity test in mice by intravenous administration, the mortality of compound of example 1 and 1-3 are 0/6 and 0/6 at the dose of 100 mg/kg and are 6/6 and 4/6 at the dose of 200 mg/kg, respectively.

[1] = test system: organ slice of cat cerebral cortex; experiment: Inhibition test on cerebral edema using organ slice of cat cerebral cortex (NaHCO3-stimulated swelling); format: cell-based; conditions: Felis catus, 50 min, cat cerebral cortex slices, 50 minutes at 37° C., pH 7.4, swelling stimulated with NaHCO3; for IC50: read-out: inhibitory activity of cerebral edema (IC50); for inhibition at 0.01 µM: 10^-8 M, read-out: a percentage of inhibition of swelling at 10^-8 M (%)
Procedure: THE INHIBITION TEST ON CEREBRAL EDEMA USING ORGAN SLICE OF CAT CEREBRAL CORTEX
The test was carried out by the method described in Journal of Medicinal Chemistry, Vol. 25 (No. 5), 567 (1982).
That is, brain was isolated from a cat weighing 2~4 kg, slices of about 1 mm in thickness was prepared, the white matter substance was removed, and the gray matter substance (100~150 mg a test) was used for a sample. The sample was added to the following incubation medium and incuvated for 50 minutes at 37° C. After the incubation, the sample was immediately weighed again to determine the swelling weight of the sample.
(osmotic pressure, 280~290 mOsm/l)
1. Hepes Buffer (pH 7.4). . . 2.365 ml
adjusted to pH 7.4 by NaOH
2. test compounds [dissolved in the presence of tris(hydroxymethyl) aminomethane] or water. . . 0.01 ml
3. 0.2M NaHCO3 (dissolved by Hepes Buffer, giving the final concentration of 10 mM in medium) or Hepes Buffer. . . 0.125 ml
The test was carried out by using NaHCO3 as a stimulating agent of swelling.
(A) A percentage of swelling when a slice sample was added to incubation medium comprising Hepes Buffer, water and NaHCO3 (defined as maximum of swelling).
(B) A percentage of swelling when a slice sample was added to incubation medium comprising Hepes Buffer and water (defined as maximum inhibition of swelling).
(C) A percentage of swelling when a slice sample was added to incubation medium comprising Hepes Buffer, the test compounds in various concentrations and NaHCO3.
Above-mentioned (A), (B) and (C) were determined. Inhibition percentage of the test compounds was caliculated by the following equation: [formula] IC50 value was determined by dose-response curve as a concentration in which inhibition percentage was 50.
The results are shown Table I. And further, percentages of swelling of (C) was counted, in the case that concentration of test compound of (C) was 10^-8 M, and inhibition of swelling at the concentration of 10^-8 M was determined by percentages of swelling of both (A) and (B).

Which mortality (mice; 100 mg/kg) does the source give for `O=C(c1ccccc1)c1ccc(O[C@H]2CC[C@H](C(=O)O)C2)c(Cl)c1Cl` [Example 1, (1S,3S)-3-[(2,3-dichloro-4-benzoyl)phenoxy]cyclopentanecarboxylic acid] here?
The mortality was 0/6.

And the mortality (mice; 200 mg/kg)?
Its mortality is 6/6.

What about the IC50 [1] of the same compound?
The IC50 was 5.5 nM.

`O=C(Cc1ccccc1)c1ccc(O[C@H]2CC[C@H](C(=O)O)C2)c(Cl)c1Cl` [Example 1-13, (1S,3S)-3-[(2,3-dichloro-4-phenylacetyl)phenoxy]cyclopentanecarboxylic acid] was tested. Which inhibition at 0.01 µM [1] did it give?
Its inhibition at 0.01 µM is 36%.

What does the source list for `O=C(c1ccc(O[C@H]2CC[C@H](C(=O)O)C2)c(Cl)c1Cl)c1cccc2ccccc12` [Example 1-19, (1S,3S)-3-[{2,3-dichloro-4-(1-naphthoyl)}phenoxy]cyclopentanecarboxylic acid]?
inhibition at 0.01 µM [1]: 90%; IC50 [1]: 4.1 nM

`Cc1cccc(C(=O)c2ccc(O[C@H]3CC[C@H](C(=O)O)C3)c(Cl)c2Cl)c1` [Example 1-20, (1S,3S)-3-[{2,3-dichloro-4-(3-methylbenzoyl)}phenoxy]cyclopentanecarboxylicacid] was tested. Which inhibition at 0.01 µM [1] did it give?
Its inhibition at 0.01 µM is 78%.

With `O=C(c1ccccc1)c1ccc(O[C@H]2CC[C@H](C(=O)O)C2)cc1Cl` [Example 1-25, (1S,3S)-3-[(3-chloro-4-benzoyl)phenoxy]cyclopentanecarboxylic acid] as the compound, how does the inhibition at 0.01 µM [1] read?
Its inhibition at 0.01 µM is 100%.

And the IC50 [1]?
Its IC50 is 3 nM.

With `O=C(c1ccccc1)c1ccc(O[C@H]2CC[C@H](C(=O)O)C2)c2ccccc12` [Example 4, (1S,3S)-3-(4-benzoyl-1-naphthoxy)cyclopentanecarboxylic acid] as the compound, how does the inhibition at 0.01 µM [1] read?
The inhibition at 0.01 µM was 41%.

Which mortality (mice; 100 mg/kg) does the source give for `O=C(c1cccs1)c1ccc(O[C@H]2CC[C@H](C(=O)O)C2)c(Cl)c1Cl` [Example 1-3, (1S,3S)-3-[{2,3-dichloro-4-(2-thenoyl)}phenoxy]cyclopentanecarboxylic acid] here?
Its mortality is 0/6.

What about the mortality (mice; 200 mg/kg) of the same compound?
The mortality was 4/6.

What about the IC50 [1] of the same compound?
The IC50 was 2.2 nM.

For `O=C(c1ccccc1F)c1ccc(O[C@H]2CC[C@H](C(=O)O)C2)c(Cl)c1Cl` [Example 1-8, (1S,3S)-3-[{2,3-dichloro-4-(2-fluorobenzoyl)}phenoxy]cyclopentanecarboxylicacid], which inhibition at 0.01 µM [1] is on record?
Its inhibition at 0.01 µM is 82%.

And the IC50 [1]?
The IC50 was 2.6 nM.

Which inhibition at 0.01 µM [1] does the source give for `O=C(c1cccc([N+](=O)[O-])c1)c1ccc(O[C@H]2CC[C@H](C(=O)O)C2)c(Cl)c1Cl` [Example 1-12, (1S,3S)-3-[{2,3-dichloro-4-(3-nitrobenzoyl)}phenoxy]cyclopentanecarboxylic acid] here?
Its inhibition at 0.01 µM is 52%.
